In one assay the target is T1, human DAT (Homo sapiens, UniProt Q01959).
T1 construct: expressed in transfected cells
In words: hDAT release of [3H]dopamine, CHO cells. It is filed as cell-based. Conditions: for DAT/SERT ratio: (DAT EC50)^−1/(SERT EC50)^−1, larger numbers indicate higher DAT selectivity.

The next assay has as its target T2, human SERT (Homo sapiens, UniProt P31645).
T2 construct: expressed in transfected cells
The assay is described as follows: hSERT release of [3H]serotonin, CHO cells. Type of assay: cell-based.

Assay [1] deals with T3, human 5-HT transporter (hSERT) (Homo sapiens, UniProt P31645).
T3 construct: expressed in transfected cells; host or cells: CHO
The assay is described as follows: hSERT antagonist radioligand assay ([3H]imipramine), CHO cells. It is filed as binding. The text has this: Interactions with these transporters were therefore separately measured using two additional types of assays: an antagonist radioligand assay of inhibition of the human 5-HT transporter (hSERT) expressed in CHO cells (Tatsumi, M. et al. (1999), Eur. J. Pharmacol., 368: 277-283) and an assay measuring release of [^3H] […] While the former is sensitive to classic reuptake inhibition, the latter can detect the effects of substrates, which also induce release. Specific assay steps and reference compounds are given below for each assay type.
Three tryptamine derivatives were evaluated for inhibiting the human 5-HT transporter (hSERT) as expressed in CHO cells using an antagonist radioligand assay (Tatsumi, M. et al. 1999, Eur. J. Pharmacol., 368: 277-283). […] Test compounds were assayed in two trials at 3.0E-10, 3.0E-9, 3.0E-8, 3.0E-7, 3.0E-6, and 3.0E-5 M.

A further assay has as its target T4, MAOA (Homo sapiens, UniProt P21397).
T4 sequence (P21397 1-527): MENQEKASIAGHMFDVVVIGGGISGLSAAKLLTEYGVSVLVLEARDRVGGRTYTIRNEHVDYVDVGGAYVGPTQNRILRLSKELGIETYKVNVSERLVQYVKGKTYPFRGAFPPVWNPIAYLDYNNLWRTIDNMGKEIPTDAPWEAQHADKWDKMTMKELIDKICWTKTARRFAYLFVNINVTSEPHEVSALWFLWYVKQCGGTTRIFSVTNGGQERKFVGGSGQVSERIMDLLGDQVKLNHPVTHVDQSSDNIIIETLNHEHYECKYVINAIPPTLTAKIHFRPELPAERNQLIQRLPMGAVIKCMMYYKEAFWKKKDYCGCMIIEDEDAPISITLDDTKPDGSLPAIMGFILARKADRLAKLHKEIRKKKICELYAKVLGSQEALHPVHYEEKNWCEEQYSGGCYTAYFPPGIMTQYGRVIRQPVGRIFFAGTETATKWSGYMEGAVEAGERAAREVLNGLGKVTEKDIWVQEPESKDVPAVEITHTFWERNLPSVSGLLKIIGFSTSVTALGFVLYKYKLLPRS
Conditions: cited from earlier work; for IC50: read-out: MAOA IC50, Table 10, Source (1) Wagmann et al. 2017.

Assay [2] has as its target T5, Monoamine oxidase type A (MAOA) (Homo sapiens, UniProt P21397).
T5 construct: purchased Sigma
T5 sequence (P21397 1-527): T4 sequence (P21397 1-527)
In words: Enzymatic assay, MAOA (kynuramine substrate). It is filed as biochemical. Conditions: for Hill: Hill of MAOA inhibition curve, Original data; for MAOA inhibition (MAOI or not, in words): original data.

Assay [3] concerns the target Gamma-aminobutyric acid Receptor A (GABAA) (Homo sapiens, UniProt P14867+P47870). It is filed as cell-based. Conditions: Ion Channel, blocker, read-out: IC50 (μM) Antag./Blocker/Inhibitor.
Assay [4] addresses T6, Nicotinic acetylcholine Receptor α4 β2 (nAChR(a4/b2)) (Homo sapiens, UniProt P17787+P43681).
T6 construct: expressed in transfected cells
In words: cell-based. The settings on record: nAChR(a4/b2), Ion Channel, blocker; read-out: IC50 (μM) Antag./Blocker/Inhibitor.

For the next assay, the system named is neuritogenesis. The settings on record: cited from earlier work.

Read-outs that look alike come from different tables or passages of the source.

This is an account of results in patent publication US20230257347A1 (priority 2020, published 2023).

T1 sequence (Q01959 whole entry): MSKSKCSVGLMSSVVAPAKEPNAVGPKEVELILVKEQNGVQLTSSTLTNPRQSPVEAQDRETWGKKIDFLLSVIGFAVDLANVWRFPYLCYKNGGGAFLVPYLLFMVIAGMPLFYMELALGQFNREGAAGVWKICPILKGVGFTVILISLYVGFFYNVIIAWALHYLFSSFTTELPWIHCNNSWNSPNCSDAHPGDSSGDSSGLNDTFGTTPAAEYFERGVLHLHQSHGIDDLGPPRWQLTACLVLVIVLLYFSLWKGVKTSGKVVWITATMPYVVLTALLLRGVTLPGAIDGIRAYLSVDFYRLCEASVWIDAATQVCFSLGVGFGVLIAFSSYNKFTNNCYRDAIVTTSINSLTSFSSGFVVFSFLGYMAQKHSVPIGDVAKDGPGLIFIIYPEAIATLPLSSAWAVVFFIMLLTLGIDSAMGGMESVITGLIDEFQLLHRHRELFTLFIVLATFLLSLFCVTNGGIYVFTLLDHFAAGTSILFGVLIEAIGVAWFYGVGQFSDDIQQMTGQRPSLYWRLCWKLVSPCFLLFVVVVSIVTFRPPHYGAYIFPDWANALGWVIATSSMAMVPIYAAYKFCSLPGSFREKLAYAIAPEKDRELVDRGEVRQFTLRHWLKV
T3 sequence (P31645 whole entry): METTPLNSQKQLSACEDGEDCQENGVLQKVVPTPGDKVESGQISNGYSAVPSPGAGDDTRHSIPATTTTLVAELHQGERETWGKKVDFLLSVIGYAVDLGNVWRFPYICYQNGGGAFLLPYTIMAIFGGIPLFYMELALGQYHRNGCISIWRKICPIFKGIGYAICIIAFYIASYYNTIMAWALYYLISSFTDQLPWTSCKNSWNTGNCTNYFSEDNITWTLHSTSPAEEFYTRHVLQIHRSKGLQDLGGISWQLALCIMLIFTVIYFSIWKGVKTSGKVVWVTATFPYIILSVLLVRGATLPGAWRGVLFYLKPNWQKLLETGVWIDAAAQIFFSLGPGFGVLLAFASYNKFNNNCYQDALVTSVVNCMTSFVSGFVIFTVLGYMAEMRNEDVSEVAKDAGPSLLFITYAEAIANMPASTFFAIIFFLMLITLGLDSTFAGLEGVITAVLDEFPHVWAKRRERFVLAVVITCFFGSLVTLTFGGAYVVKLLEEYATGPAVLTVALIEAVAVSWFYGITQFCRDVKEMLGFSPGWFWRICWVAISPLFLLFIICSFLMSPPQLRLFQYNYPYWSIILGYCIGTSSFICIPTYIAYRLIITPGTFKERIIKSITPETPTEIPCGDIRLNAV
T2 sequence (P31645 whole entry): as above
T6 sequence (P43681 29-627 limits assumed): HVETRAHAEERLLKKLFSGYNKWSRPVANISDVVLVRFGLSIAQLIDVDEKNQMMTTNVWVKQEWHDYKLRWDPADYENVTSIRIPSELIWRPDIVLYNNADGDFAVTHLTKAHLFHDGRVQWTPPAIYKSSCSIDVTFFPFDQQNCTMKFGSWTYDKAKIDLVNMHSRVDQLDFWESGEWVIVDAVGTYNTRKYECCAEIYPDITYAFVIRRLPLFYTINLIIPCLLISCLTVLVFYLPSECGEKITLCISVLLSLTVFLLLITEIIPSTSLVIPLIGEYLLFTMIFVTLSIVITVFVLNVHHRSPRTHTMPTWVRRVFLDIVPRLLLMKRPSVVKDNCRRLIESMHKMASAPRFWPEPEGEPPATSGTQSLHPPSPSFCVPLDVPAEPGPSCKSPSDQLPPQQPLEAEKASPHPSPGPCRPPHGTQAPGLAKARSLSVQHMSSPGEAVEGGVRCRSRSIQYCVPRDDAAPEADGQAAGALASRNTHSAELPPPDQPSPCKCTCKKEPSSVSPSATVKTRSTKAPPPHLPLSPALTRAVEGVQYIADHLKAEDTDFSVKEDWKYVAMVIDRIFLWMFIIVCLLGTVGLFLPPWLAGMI
T6 sequence (P17787 26-502): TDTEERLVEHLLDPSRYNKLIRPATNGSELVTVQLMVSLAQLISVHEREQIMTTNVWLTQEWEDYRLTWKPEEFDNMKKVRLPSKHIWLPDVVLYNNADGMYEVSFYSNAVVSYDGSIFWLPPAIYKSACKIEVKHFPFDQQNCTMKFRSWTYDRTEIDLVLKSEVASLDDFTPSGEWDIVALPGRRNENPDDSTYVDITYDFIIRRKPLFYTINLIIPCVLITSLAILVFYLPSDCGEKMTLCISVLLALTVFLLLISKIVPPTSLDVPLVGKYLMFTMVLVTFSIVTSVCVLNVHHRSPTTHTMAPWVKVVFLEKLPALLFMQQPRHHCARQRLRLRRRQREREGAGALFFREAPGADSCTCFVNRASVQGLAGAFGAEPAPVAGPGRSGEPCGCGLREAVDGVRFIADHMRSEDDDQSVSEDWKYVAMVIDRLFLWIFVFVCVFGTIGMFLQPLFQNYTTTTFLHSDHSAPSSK
Sequence of Gamma-aminobutyric acid Receptor A (GABAA) (P14867 28-456): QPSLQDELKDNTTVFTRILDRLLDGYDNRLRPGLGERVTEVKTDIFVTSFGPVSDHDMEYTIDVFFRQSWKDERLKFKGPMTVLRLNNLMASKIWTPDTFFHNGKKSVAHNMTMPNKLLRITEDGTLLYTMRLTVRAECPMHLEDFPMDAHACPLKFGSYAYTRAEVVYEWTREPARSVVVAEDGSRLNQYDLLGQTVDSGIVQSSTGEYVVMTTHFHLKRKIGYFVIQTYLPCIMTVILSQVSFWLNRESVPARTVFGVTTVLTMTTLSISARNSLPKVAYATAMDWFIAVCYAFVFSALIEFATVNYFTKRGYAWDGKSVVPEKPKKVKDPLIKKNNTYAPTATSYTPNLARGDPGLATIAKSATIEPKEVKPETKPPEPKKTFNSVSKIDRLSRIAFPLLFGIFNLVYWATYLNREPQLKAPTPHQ
Sequence of Gamma-aminobutyric acid Receptor A (GABAA) (P47870 26-512): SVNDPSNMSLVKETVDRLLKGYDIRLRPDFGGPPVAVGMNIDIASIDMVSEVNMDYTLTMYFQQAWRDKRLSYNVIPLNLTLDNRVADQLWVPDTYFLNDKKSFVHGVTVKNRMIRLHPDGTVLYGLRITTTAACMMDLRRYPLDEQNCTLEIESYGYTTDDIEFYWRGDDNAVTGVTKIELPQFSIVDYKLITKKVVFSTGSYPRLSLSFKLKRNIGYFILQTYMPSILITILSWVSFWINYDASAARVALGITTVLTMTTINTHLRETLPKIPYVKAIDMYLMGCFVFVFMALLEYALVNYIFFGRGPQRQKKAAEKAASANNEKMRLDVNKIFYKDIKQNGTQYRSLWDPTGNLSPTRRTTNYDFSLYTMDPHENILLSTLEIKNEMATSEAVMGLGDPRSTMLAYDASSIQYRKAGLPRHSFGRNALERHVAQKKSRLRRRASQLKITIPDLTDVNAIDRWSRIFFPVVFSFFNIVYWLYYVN
Sequence of Gamma-aminobutyric acid Receptor A (GABAA) (P18507 40-475 partner): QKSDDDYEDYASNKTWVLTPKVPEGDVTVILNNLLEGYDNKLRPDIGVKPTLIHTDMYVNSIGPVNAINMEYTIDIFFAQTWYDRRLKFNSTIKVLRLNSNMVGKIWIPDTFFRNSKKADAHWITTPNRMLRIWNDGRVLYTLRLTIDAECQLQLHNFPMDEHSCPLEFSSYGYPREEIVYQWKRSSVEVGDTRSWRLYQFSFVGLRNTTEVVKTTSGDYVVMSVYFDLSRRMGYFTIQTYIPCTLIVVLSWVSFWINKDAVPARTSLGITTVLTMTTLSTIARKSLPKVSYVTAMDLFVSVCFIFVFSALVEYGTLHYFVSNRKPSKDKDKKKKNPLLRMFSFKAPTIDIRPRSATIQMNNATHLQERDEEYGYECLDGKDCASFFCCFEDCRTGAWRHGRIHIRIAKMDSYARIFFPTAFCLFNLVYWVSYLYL

Take `CNC(C)C(=O)c1c[nH]c2ccc(Br)cc12` (stereo not drawn) [drawing 187]: on human DAT, the EC50 (commonly the midpoint of the concentration-response curve) was found to be 2100 nM and the DAT/SERT ratio came out at 0.14. The compound also came in with a concentration giving a half-maximal response (EC50) on human SERT of 295 nM.
On to `CNC(C)C(=O)c1c[nH]c2ccc(F)cc12` (stereo not drawn) [drawing 183], for which, in assay [1], the IC50 is 3500 nM and the Ki – broadly, a measure of affinity in units of concentration, obtained from inhibition or displacement – turned out to be 1600 nM.
With `Cc1[nH]c2ccc(F)cc2c1CC(C)N` (stereo not drawn) [1-(5-fluoro-2-methyl-1H-indol-3-yl)propan-2-amine], at MAOA, the IC50 is 4100 nM.
For the compound `CCC(N)Cc1c[nH]c2ccc(F)cc12` (stereo not drawn) [1-(5-fluoro-1H-indol-3-yl)butan-2-amine, reference compound], in assay [2], the IC50 was 2480 nM and the Hill came to 0.89.
Consider `Cc1ccc2[nH]cc(CC(C)N)c2c1` (stereo not drawn) [1-(5-methyl-1H-indol-3-yl) propan-2-amine], for which, at MAOA, the IC50 was 1500 nM.
For the compound `CC(N)Cc1c[nH]c2cc(F)ccc12` (stereo not drawn) [1-(6-fluoro-1H-indol-3-yl) propan-2-amine], the IC50 on MAOA is 1800 nM.
Consider Picrotoxin, for which the IC50 in assay [3] was determined as 2.78 µM.
On to `CNC(C)C(=O)c1c[nH]c2ccc(F)cc12` (stereo not drawn) [drawing 186], for which, at human DAT, a half-maximal effect (EC50) was put at 620 nM and the DAT/SERT ratio is given as 0.31. Moreover, the half-maximal effective concentration (EC50) on human SERT turned out to be 190 nM.
`CCC(N)C(=O)c1c[nH]c2ccc(F)cc12` (stereo not drawn) [2-amino-1-(5-fluoro-1H-indol-3-yl) butan-1-one]: in assay [2], the IC50 was greater than 30000 nM.
On to `CC(N)Cc1c[nH]c2ccccc12` (stereo not drawn) [1-(1H-indol-3-yl)propan-2-amine], for which, at MAOA, the IC50 was 380 nM.
As to `CNC(C)C(=O)c1c[nH]c2ccc(Br)cc12` (stereo not drawn) [drawing 184], in assay [1], the IC50 worked out at 5600 nM and the Ki came to 2600 nM.
On to `CC(N)Cc1c[nH]c2ccc(Cl)cc12` (stereo not drawn) [1-(5-chloro-1H-indol-3-yl) propan-2-amine], for which the IC50 at MAOA was 250 nM.
With “Dihydro-AY-erythroidine [reference compound]”, in assay [4], the IC50 is 0.682 µM.
`CNC(C)Cc1c[nH]c2ccc(F)cc12` (stereo not drawn) [[1-(5-fluoro-1H-indol-3-yl)propan-2-yl](methyl)amine, reference compound]: in assay [2], the IC50 amounted to 450 nM; the Hill is reported as 1.01; the “MAOA inhibition (MAOI or not, in words)” value is given as “are MAOIs”.
On to `CC(N)Cc1c[nH]c2ccc(Br)cc12` (stereo not drawn) [1-(5-bromo-1H-indol-3-yl)propan-2-amine], for which, on MAOA, the IC50 was 1300 nM.
Take `CNC(C)C(=O)c1c[nH]c2ccc(Cl)cc12` (stereo not drawn) [drawing 185]: in assay [1], the IC50 turned out to be 2500 nM and the affinity, expressed as Ki, was 1100 nM.
`CNC(C)C(=O)c1c[nH]c2ccc(Cl)cc12` (stereo not drawn) [drawing 188]: on human DAT, the half-maximal effective concentration (EC50) turned out to be 865 nM and the DAT/SERT ratio turned out to be 0.23. At human SERT, this compound returned an EC50 of 200 nM.
Take `CNCC(=O)c1c[nH]c2ccc(F)cc12` [1-(5-fluoro-1H-indol-3-yl)-2-(methylamino)ethan-1-one, reference compound]: in assay [2], the Hill is 1.02 and the “MAOA inhibition (MAOI or not, in words)” value is given as “is also an MAOI”. In addition, in assay [2] (Table 10, Source: Original data, read-out: MAOA IC50), the IC50 was 3430 nM.
As for `CNC(C)Cc1ccc2c(c1)OCO2` (stereo not drawn) [MDMA, 3,4-methylenedioxymethamphetamine], the concentration giving a half-maximal response (EC50) in the assay on neuritogenesis (Ly et al. Cell reports 2018, Figure S3, read-out: EC50 for promoting neuritogenesis) was 7.41 nM. Further, the “Emax for promoting neuritogenesis” value in the assay on neuritogenesis (relative to ketamine, Ly et al. 2018) was “approximately twice that of ketamine”.
In the case of `CC(N)Cc1c[nH]c2ccc(F)cc12` (stereo not drawn) [1-(5-fluoro-1H-indol-3-yl) propan-2-amine], at MAOA (previously reported data), the “MAOA inhibition (MAOI or not, in words)” value is given as “are MAOIs”. For the same compound, the IC50 on MAOA is 450 nM.
